Structures are written as SMILES. Some results are limits rather than exact numbers.

Data set [1] addresses T1, Oxytocin receptor (Homo sapiens, UniProt P30559).
T1 sequence (P30559 whole entry): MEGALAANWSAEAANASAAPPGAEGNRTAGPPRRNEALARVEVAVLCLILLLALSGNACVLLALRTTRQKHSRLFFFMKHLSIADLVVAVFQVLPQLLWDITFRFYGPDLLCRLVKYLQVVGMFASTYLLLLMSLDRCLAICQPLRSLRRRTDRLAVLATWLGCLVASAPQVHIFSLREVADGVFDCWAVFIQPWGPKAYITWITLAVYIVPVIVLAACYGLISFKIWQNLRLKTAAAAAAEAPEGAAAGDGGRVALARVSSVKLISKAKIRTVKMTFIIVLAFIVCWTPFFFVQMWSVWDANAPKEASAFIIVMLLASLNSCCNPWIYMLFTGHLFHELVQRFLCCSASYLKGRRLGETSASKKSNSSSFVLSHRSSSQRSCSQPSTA
The data set is described as follows: Inhibition of binding of [3H]oxytocin with human oxytocin receptor.

Data set [2] is described as follows: Plasma clearance was determined. The following applies: dog. The format is ADME, organism-based, Canis lupus familiaris.
The nature of data set [3]: Volume distribution was determined. The class given is ADME, organism-based, Canis lupus familiaris. The settings on record: dog, in vivo.
A short description of data set [4]: Bioavailability. The class given is ADME, organism-based, Canis lupus familiaris. The following applies: dog, in vivo.

As usually defined, the Ki is the dissociation constant of the complex between target and ligand, obtained from inhibition or displacement. A lower Ki goes with higher affinity. As a reminder, the clearance is the volume of plasma or blood freed of the substance per unit of time. A higher clearance goes with efficient removal. For orientation: Vd means a proportionality between amount in the body and measured concentration, not a real space. Higher therefore signals extensive tissue distribution. In turn, `CC(=O)NC1N=C(c2ccccc2)c2ccccc2N(CC(=O)NCCc2cccc(Cl)c2)C1=O` (centres undefined) showed a Ki in data set [1] of 0.1 µM. This compound yielded a clearance in data set [2] of 6 mL/min/kg. The compound further yielded a Vd in data set [3] of 0.4 L/kg.

As for `CC(=O)CCCC(=O)NC1N=C(C)c2ccccc2N(CC(=O)N[C@@H](Cc2ccc(Cl)c(Cl)c2)C(N)=O)C1=O` (some centres undefined), the affinity in data set [1], expressed as Ki, was 0.2 µM. The compound `CC(=O)NC1N=C(c2ccccc2)c2ccccc2N(CC(=O)NCCc2ccc(Cl)c(Cl)c2)C1=O` (centres undefined) showed a Ki in data set [1] of 0.1 µM. In turn, `CC(=O)CCCC(=O)NC1N=C(c2ccccc2)c2ccccc2N(CC(=O)NC2CCc3ccccc3C2)C1=O` (centres undefined) gave a Ki in data set [1] of more than 5.01 µM. Also, in data set [2], the clearance stood at 0.3 mL/min/kg. Further, in data set [3], the distribution volume (Vd) came to 0.2 L/kg. The compound `CC(=O)CCCC(=O)NC1N=C(c2ccccc2)c2ccccc2N(CC(=O)NCCCc2cccc(Cl)c2)C1=O` (centres undefined) gave a Ki in data set [1] of 0.1 µM. Compound `CC(=O)CCCC(=O)NC1N=C(c2ccccc2)c2ccccc2N(CC(=O)NCCc2cccc3ccccc23)C1=O` (centres undefined) had a Ki in data set [1] of 0.0158 µM. On the same count and under the same terms, next, `CC(=O)NC1N=C(c2ccccc2)c2ccccc2N(CC(=O)N[C@@H](Cc2ccc(Cl)c(Cl)c2)C(N)=O)C1=O` (some centres undefined): 0.0251 µM; `CC(=O)NC1N=C(c2ccccc2)c2ccccc2N(CC(=O)NCCc2cccc3ccccc23)C1=O` (centres undefined): 0.1 µM; `CC(=O)CCCC(=O)NC1N=C(c2ccccc2)c2ccccc2N(CC(=O)NCCc2ccccc2Cl)C1=O` (centres undefined): 0.2 µM. Compound `CC(=O)CCCC(=O)NC1N=C(c2ccccc2)c2ccccc2N(CC(=O)NCCc2ccccc2)C1=O` (centres undefined) gave a Ki in data set [1] of 0.316 µM. On to `NC(=O)[C@H](Cc1ccc(Cl)c(Cl)c1)NC(=O)CN1C(=O)C(NC(=O)CN2CCOCC2)N=C(c2ccccc2)c2ccccc21` (some centres undefined), for which the affinity in data set [1] corresponds to a Ki of 0.0398 µM. In addition, the clearance in data set [2] was determined as 33 mL/min/kg. Moreover, the Vd in data set [3] was determined as 2.8 L/kg. In the case of `CS(=O)(=O)NC1N=C(c2ccccc2)c2ccccc2N(CC(=O)N[C@@H](Cc2ccc(Cl)c(Cl)c2)C(N)=O)C1=O` (some centres undefined), the affinity in data set [1], expressed as Ki, was 0.501 µM. Compound `CC(=O)CCCC(=O)NC1N=C(C2CCCCC2)c2ccccc2N(CC(=O)N[C@@H](Cc2ccc(Cl)c(Cl)c2)C(N)=O)C1=O` (some centres undefined) showed a Ki in data set [1] of 0.0316 µM.

`CC(=O)CCCC(=O)NC1N=C(c2ccccc2)c2ccccc2N(CC(=O)N[C@@H](CC2CCCCC2)C(N)=O)C1=O` (some centres undefined) showed a Ki in data set [1] of 0.794 µM. Take `CC(=O)CCCC(=O)NC1N=C(Cn2ccnc2)c2ccccc2N(CC(=O)N[C@@H](Cc2ccc(Cl)c(Cl)c2)C(N)=O)C1=O` (some centres undefined): the Ki in data set [1] is 0.794 µM. In data set [1], `CC(=O)CCCC(=O)NC1N=C(c2ccccc2)c2ccccc2N(CC(=O)NCCc2cccc(Cl)c2)C1=O` (centres undefined) gave a Ki of 0.02 µM. Moreover, the clearance in data set [2] was 3 mL/min/kg. Besides, in data set [3], the Vd was determined as 0.3 L/kg. In data set [1], `CC(=O)NC1N=C(c2ccccc2)c2ccccc2N(CC(=O)NCc2nc(-c3ccccc3)no2)C1=O` (centres undefined) showed a Ki of 0.794 µM. By bioavailability is commonly meant dose-corrected exposure relative to a reference, in per cent. A high value points to much systemic uptake. `CC(=O)CCCC(=O)NC1N=C(c2ccccc2)c2ccccc2N(CC(=O)NCCc2ccc(Cl)c(Cl)c2)C1=O` (centres undefined) gave a Ki in data set [1] of 0.0251 µM. The same compound returned a clearance in data set [2] of 4 mL/min/kg. Further, in data set [3], the Vd was 0.2 L/kg. Besides, in data set [4], the bioavailability was 12%. Taken in the same sequence, the figures for `CC(=O)CCCC(=O)NC1N=C(c2ccccc2)c2ccccc2N(CC(=O)N[C@@H](Cc2ccc(Cl)c(Cl)c2)C(N)=O)C1=O` (some centres undefined) were 0.00794 µM, 62 mL/min/kg, 0.6 L/kg and more than 20%.

For `CC(=O)CCCC(=O)NC1N=C(c2ccccc2)c2ccccc2N(CC(=O)NCCc2ccc3ccccc3c2)C1=O` (centres undefined), the Ki in data set [1] was 0.0158 µM. Same read-out and setting: next, `CC(=O)NC1N=C(c2ccccc2)c2ccccc2N(CC(=O)NCc2nc(-c3ccc(Cl)c(Cl)c3)cs2)C1=O` (centres undefined): more than 5.01 µM; `CC(=O)CCCC(=O)NC1N=C(c2ccccc2)c2ccccc2N(CC(=O)NC2=NOC(c3ccccc3)C2)C1=O` (centres undefined): more than 3.16 µM; `CC(=O)NC1N=C(c2ccccc2)c2ccccc2N(CC(=O)N[C@H](Cc2ccc(Cl)c(Cl)c2)C(N)=O)C1=O` (some centres undefined): 0.794 µM.

Consider `CC(=O)NC1N=C(c2ccccc2)c2ccccc2N(CC(=O)N(C)CCc2cccc(Cl)c2)C1=O` (centres undefined), for which the affinity in data set [1] corresponds to a Ki of 1.58 µM. Consider `CC(=O)CCCC(=O)NC1N=C(c2ccccc2)c2ccccc2N(CC(=O)N[C@@H](Cc2ccc(F)cc2)C(N)=O)C1=O` (some centres undefined), for which the affinity in data set [1] corresponds to a Ki of 0.0794 µM.

Values taken from ChEMBL document CHEMBL1134064, “Structure-activity relationship investigations of a potent and selective benzodiazepine oxytocin antagonist” (Bioorg Med Chem Lett, 2001).
